The text below walks through data of patent US20200247849A1, “PEPTIDE AGONISTS AND ANTAGONISTS OF TLR4 ACTIVATION” (PEPTICOM LTD, priority 2016, published 2020).

The test system of the test is TLR4 with MD2 or CD14 co-receptor. In words: Reporter gene (SEAP) PAMP assay in NIH3T3 cells expressing TLR4 with MD2 or CD14 co-receptor. It counts as cell-based. Conditions: summary of FIGS. 6A-6V. (In a reporter assay the amount or activity of a reporter protein is the signal.)

For the sequence ILFMGMKWL (Inhibitor) [SEQ ID No. 9], the Co-Receptor/s entry (co-receptor (MD2/CD14) via which the effect occurs) is given as “MD2”. The Activity entry (type of effect (activation/inhibition) on TLR4) is listed as “Inhibitor”.
